Source: PubChem BioAssay AID1963963 (Molecular Pharmacology Branch, DTP, NCI, 2024)

Test system: 958667-338-R-J2-PDC tumor spheroids viability
Assay: Anticancer human tumor 958667-338-R-J2-PDC patient-derived colon adenocarcinoma cell line growth inhibition [PI3K]
Conditions: spheroids with HUVEC and MSC; for IC50: curve of first compound; for viability, T/C: stronger effect = lower value
Outline: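 Viability of mixed-cell spheroids was determined after exposure to pairwise combinations, one partner being inavolisib, alpelisib, duvelisib or copanlisib. Highest tested concentration matched clinical Cmax where known and 10 microM where not, descending in half-log steps.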

[1] = second compound 0.0316 µM, first compound 0.0316 µM
[2] = second compound 0.0316 µM, first compound 0.1 µM
[3] = second compound 0.0316 µM, first compound 0.316 µM
[4] = second compound 0.0316 µM, first compound 1 µM
[5] = second compound 0.0316 µM, first compound 3.16 µM
[6] = second compound 0.0316 µM, first compound 10 µM
[7] = second compound 0.1 µM, first compound 0.0316 µM
[8] = second compound 0.1 µM, first compound 0.1 µM
[9] = second compound 0.1 µM, first compound 0.316 µM
[10] = second compound 0.1 µM, first compound 1 µM
[11] = second compound 0.1 µM, first compound 3.16 µM
[12] = second compound 0.1 µM, first compound 10 µM
[13] = second compound 0.316 µM, first compound 0.0316 µM
[14] = second compound 0.316 µM, first compound 0.1 µM
[15] = second compound 0.316 µM, first compound 0.316 µM
[16] = second compound 0.316 µM, first compound 1 µM
[17] = second compound 0.316 µM, first compound 3.16 µM
[18] = second compound 0.316 µM, first compound 10 µM
[19] = second compound 1 µM, first compound 0.0316 µM
[20] = second compound 1 µM, first compound 0.1 µM
[21] = second compound 1 µM, first compound 0.316 µM
[22] = second compound 1 µM, first compound 1 µM
[23] = second compound 1 µM, first compound 3.16 µM
[24] = second compound 1 µM, first compound 10 µM
[25] = second compound 3.16 µM, first compound 0.0316 µM
[26] = second compound 3.16 µM, first compound 0.1 µM
[27] = second compound 3.16 µM, first compound 0.316 µM
[28] = second compound 3.16 µM, first compound 1 µM
[29] = second compound 3.16 µM, first compound 3.16 µM
[30] = second compound 3.16 µM, first compound 10 µM
[31] = second compound 10 µM, first compound 0.0316 µM
[32] = second compound 10 µM, first compound 0.1 µM
[33] = second compound 10 µM, first compound 0.316 µM
[34] = second compound 10 µM, first compound 1 µM
[35] = second compound 10 µM, first compound 3.16 µM
[36] = second compound 10 µM, first compound 10 µM
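Further: spheroids exposed to compounds for seven days before readout.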

Molecule Cn1ncc(Cl)c1-c1cc(C(=O)NC(CN)Cc2cccc(F)c2)sc1Cl (centres undefined) + Cc1nc(NC(=O)N2CCCC2C(N)=O)sc1-c1ccnc(C(C)(C)C(F)(F)F)c1 has an IC50 (second compound 0.0316 µM) of 2450 nM, an IC50 (second compound 0.1 µM) of 2050 nM and an IC50 (second compound 0.316 µM) of 1880 nM. The IC50 (second compound 1 µM) was 1590 nM, the IC50 (second compound 3.16 µM) was 1310 nM and the IC50 (second compound 10 µM) was under 31.6 nM. For the same molecule, the viability, T/C [1] was 88.2%, the viability, T/C [2] was 84.3% and the viability, T/C [3] was 89.2%. For the same molecule, the viability, T/C [4] was 70.5%, the viability, T/C [5] was 44.7% and the viability, T/C [6] was 37.2%. For the same molecule, the viability, T/C [7] was 84.4%, the viability, T/C [8] was 81.7% and the viability, T/C [9] was 97.5%. The viability, T/C [10] was 69.5%, the viability, T/C [11] was 41.3% and the viability, T/C [12] was 34.8%. For the same molecule, the viability, T/C [13] was 71.4%, the viability, T/C [14] was 65.6% and the viability, T/C [15] was 64.6%. The viability, T/C [16] was 63.7%, the viability, T/C [17] was 39% and the viability, T/C [18] was 26.9%. The viability, T/C [19] was 71.7%, the viability, T/C [20] was 80.9% and the viability, T/C [21] was 57.3%. It also gave a viability, T/C [22] of 63.7%, a viability, T/C [23] of 31.2% and a viability, T/C [24] of 24.9%. For the same molecule, the viability, T/C [25] was 66.7%, the viability, T/C [26] was 64.4% and the viability, T/C [27] was 72%. The viability, T/C [28] was 56%, the viability, T/C [29] was 27.6% and the viability, T/C [30] was 18.1%. The viability, T/C [31] was 49.4%, the viability, T/C [32] was 44.7% and the viability, T/C [33] was 46%. For the same molecule, the viability, T/C [34] was 41.7%, the viability, T/C [35] was 23.8% and the viability, T/C [36] was 15.1%.
In the case of Cn1nccc1Nc1nccc(-c2ccn(C(CO)c3ccc(Cl)c(F)c3)c(=O)c2)n1 (centres undefined) + Cc1nc(NC(=O)N2CCCC2C(N)=O)sc1-c1ccnc(C(C)(C)C(F)(F)F)c1, the IC50 (second compound 0.0316 µM) is reported as over 10000 nM, the IC50 (second compound 0.1 µM) is reported as over 10000 nM and the IC50 (second compound 0.316 µM) is reported as over 10000 nM. For the same molecule, the IC50 (second compound 1 µM) was 8050 nM, the IC50 (second compound 3.16 µM) was 3660 nM and the IC50 (second compound 10 µM) was 1600 nM. For the same molecule, the viability, T/C [1] was 113%, the viability, T/C [2] was 105% and the viability, T/C [3] was 119%. The viability, T/C [4] was 101%, the viability, T/C [5] was 79.5% and the viability, T/C [6] was 77.2%. For the same molecule, the viability, T/C [7] was 137%, the viability, T/C [8] was 98% and the viability, T/C [9] was 97.2%. For the same molecule, the viability, T/C [10] was 79.8%, the viability, T/C [11] was 75% and the viability, T/C [12] was 71.8%. For the same molecule, the viability, T/C [13] was 99.6%, the viability, T/C [14] was 92.8% and the viability, T/C [15] was 91.3%. It also gave a viability, T/C [16] of 72%, a viability, T/C [17] of 82.2% and a viability, T/C [18] of 67.4%. It also gave a viability, T/C [19] of 101%, a viability, T/C [20] of 85.9% and a viability, T/C [21] of 84.5%. The viability, T/C [22] was 68.8%, the viability, T/C [23] was 77.8% and the viability, T/C [24] was 42.1%. It also gave a viability, T/C [25] of 65.8%, a viability, T/C [26] of 78.8% and a viability, T/C [27] of 74.6%. The viability, T/C [28] was 90.4%, the viability, T/C [29] was 56.6% and the viability, T/C [30] was 4.78%. For the same molecule, the viability, T/C [31] was 68%, the viability, T/C [32] was 55.8% and the viability, T/C [33] was 67.1%. It also gave a viability, T/C [34] of 72.4%, a viability, T/C [35] of 26.9% and a viability, T/C [36] of 5.35%.
